Test results as given in patent US20160347807A1, “TARGETING P53 AND ITS DNA-BINDING DOMAIN” (UNIVERSITY OF UTAH RESEARCH DOUNDATION, priority 2014, published 2016).
“Also recorded” adds a separate entry of the source.

How the values were obtained:
T47D cells [1] = test: TMRE assay (MOMP) in T47D cells; type: cell-based, human; conditions: 36 h after transfection
Procedure: 36 h after transfection T47D cells were incubated with 100 nM tetramethylrhodamineethylester (TMRE) (Invitrogen) for 30 min at 37° C. T47D cells were pelleted and resuspended in 300 μL annexin-V binding buffer (1×) (Invitrogen). Only EGFP positive cells were analyzed by using the FACS Canto-II (BD-BioSciences) with FACS Diva software. EGFP was excited with the 488 nm laser with emission filter 530/35 and TMRE was excited with the 561 nm laser with the emission filter 585/15. Mitochondrial depolarization (loss in TMRE intensity) correlates with an increase in MOMP. Independent transfections of each construct were tested three times (n=3).
36 h after transfection T47D cells were incubated with 100 nM tetramethylrhodamine, ethylester (TMRE) (Invitrogen) for 30 min at 37° C., pelleted and resuspended in 300 μL annexin-V binding buffer (1×) (Invitrogen). The FACS Canto-II with FACS Diva software was used to analyze only EGFP positive cells (excited at 488 nm with emission 530/35) stained with TMRE (excited at 561 nm laser with the emission 585/15). Loss in TMRE intensity represents mitochondrial depolarization, which correlates with an increase in mitochondrial outer membrane permeabilization (MOMP). Independent transfections of each construct were assayed three times (n=3). The highest MOMP value was set as 100% and the lowest as 0% (relative MOMP) as before.

T47D cells [2] = test: Caspase-9 assay (SR FLICA) in T47D cells; type: cell-based, human; conditions: 48 h after transfection
Procedure: T47D cells were probed 48 h after transfection using SR FLICA Caspase-9 Assay Kit (Immunochemistry Technologies, Bloomington, Minn.). Cells were incubated with SR FLICA Caspase-9 reagent for 60 min per manufacturer's recommendations, pelleted and resuspended in 300 μL 1× wash buffer (Immunochemistry Technologies). Only EGFP positive cells were analyzed by using the FACS Canto-II (BD-BioSciences) with FACS Diva software. EGFP and FLICA were excited with the 488 nm (emission filter 530/35) and the 561 laser (emission filter 585/15), respectively. Independent transfections of each construct were tested three times (n=3).
As previously described, 48 h after transfection, T47D cells were tested with SR FLICA Caspase-9 Assay Kit (Immunochemistry Technologies, Bloomington, Minn.). Cells were incubated with SR FLICA Caspase-9 reagent for 60 min, pelleted and re-suspended in 300 μL, 1× wash buffer (Immunochemistry Technologies). The FACS Canto-II with FACS Diva software was used to analyzed only EGFP positive cells stained with caspase-9, both were excited with the 488 nm (emission filter 530/35) and the 561 nm laser (emission filter 585/15), respectively. Independent transfections of each construct were assayed three times (n=3). The highest value (EGFP positive cells stained with caspase-9) was set as 100% and the lowest as 0% (relative caspase-9).

HeLa cells = test: 7-AAD assay in HeLa cells; type: cell-based, human; conditions: 24 h after transfection
Procedure: (§1) Transfected T47D, MCF-7, MDA-MB-231, HeLa and H1373 cells were pelleted and resuspended in 500 μL PBS (Invitrogen) containing 1 μM 7-aminoactinomycin D (7-AAD) (Invitrogen) for 30 min prior to analysis following the recommended protocol from the manufacturer. The assay was performed 48 h after transfection for T47D, MCF-7 and H1373 and 24 h after transfection for MDA-MB-231 and HeLa. Only EGFP positive cells were analyzed by using the FACS Canto-II (BD-BioSciences) with FACS Diva software. EGFP and 7-AAD were excited with the 488 nm laser, and were detected at 507 nm and 660 nm, respectively. Independent transfections of each construct were tested three times (n=3).
(§2) Transfected T47D, H1373, SKOV-3 and HeLa cells were pelleted and re-suspended in 500 μL PBS (Invitrogen) containing 1 μM 7-aminoactinomycin D (7-AAD) (Invitrogen) for 30 min prior to analysis. T47D and H1373 cells were analyzed 48 h after transfection, while SKOV-3 and HeLa cells were analyzed 24 h after transfection (time points optimized empirically). Only EGFP positive cells were assayed using the FACS Canto-II (BD-BioSciences) with FACS Diva software as previously. EGFP and 7-AAD were excited at 488 nm, and detected at 507 nm and 660 nm, respectively. Independent transfections of each construct were assayed three times (n=3). The highest value (EGFP positive cells stained with 7-AAD) was set at 100%, and the lowest at 0% (relative 7-AAD) as previously.

T47D cells [3] = test: 7-AAD assay in T47D cells; type: cell-based, human; conditions: 48 h after transfection, EGFP positive cells only
Procedure: as §1, §2

SKOV-3 cells = test: 7-AAD assay in SKOV-3 cells; type: cell-based, human; conditions: SKOV-3 (p53 null), 24 h after transfection
Procedure: as §2

p53-Luc Cis-Reporter = test: p53 reporter gene (dual luciferase) assay in T47D cells; type: cell-based, human; conditions: 24 h post transfection
Procedure: Luminescence was detected 24 h post transfection using PlateLumino (Stratec Biomedical Systems, Birkenfeld, Germany). Independent transfections of each constructs were assayed three times (n=3). The highest value was set at 100% and lowest value (untreated cells) was set as 0% (relative luminescence).

H1373 cells [4] = test: 7-AAD assay in H1373 cells; type: cell-based, human; conditions: H1373 (p53 null), 48 h after transfection
Procedure: as §1, §2

T47D cells [5] = test: Colony forming assay in T47D cells; type: cell-based, human; conditions: eight days after treatment
Procedure: Transfected T47D cells were harvested 24 h post transfection and resuspended in RPMI (Invitrogen) at a concentration of 3.0×10^5 cells/mL. The Cytoselect® 96-well cell transformation assay (Cell Biolabs, San Diego, Calif.) was used following manufacturer's recommendations. Equal amount of 1.2% Agar Solution, 2×DMEM/20% FBS media, and cell suspension (1:1:1) were mixed and 75 μL of the mixture was added to a 96-well plate containing a solidified base agar layer (50 μL of previously solidified 1.2% Agar Solution), and allowed to solidify at 4° C. for 15 min. The following steps were performed according to the manufacture's recommendations. A Spectra Max M2 plate reader (Molecular Devices, Sunnyvale, Calif.) was used to detect fluorescence using a 485/520 nm filter set. Independent transfections of each construct were tested three times (n=3).

T47D cells [6] = test: Rescue experiment using BFP-Bcl-XL (7-AAD) in T47D cells; type: cell-based, human; conditions: 48 h after transfection, Bcl-XL overexpression
Procedure: T47D cells were co-transfected with 1 pmol of EGFP constructs and 1 pmol of BFP-Bcl-XL (BFP tag is necessary for gating Bcl-XL transfected cells). 48 h after transfection the 7-AAD assay was performed as described above. FACSCanto-II (BD-BioSciences) and FACSDiva software were used for EGFP and BFP gating. Excitation was set at 488 nm, and detected at 507 nm and 660 nm for EGFP and 7-AAD, respectively. BFP was excited at 405 nm and detected at 457 nm. Independent transfections of each construct were tested three times (n=3).

T47D cells [7] = test: TUNEL assay in T47D cells; type: cell-based, human; conditions: 48 h after transfection
Procedure: T47D cells were harvested 48 h after transfection. In situ Death Detection Kit, TMR red (Roche, Mannheim, Germany) was used following manufacturer's recommendations as before. Cells were resuspended in PBS (Invitrogen) and analyzed via the FACSAria-II (BD-Biosciences, University of Utah Core Facility). EGFP and TMR red were excited at 488 nm and 563 nm, respectively, and FACSDiva software was used to analyze the data. Independent transfections of each construct were tested three times (n=3).

H1373 cells [8] = test: 7-AAD rescue experiment in H1373 cells with or without p53R248Wmut; type: cell-based, human; conditions: H1373, 48 h post transfection; for apoptotic activity (7-AAD) when co-transfected with p53R248Wmut: dominant negative mutant overexpressed
Procedure: E-XL was created by inserting MTS from XL into EGFP-C1 vector. Lipofectamine was used as the transfection reagent as before. 48 h post transfection, cells were stained as described in the 7-AAD assay and gated for EGFP and BFP using the FACSCanto-II (BD-BioSciences) and FACSDiva software. Excitation for BFP was set at 405 nm and detected at 457 nm. The means from three separate experiments (n=3) were analyzed using two-way ANOVA with Bonferroni's post hoc test.

endogenous Bcl-XL = molecular target: T1, endogenous Bcl-XL (Homo sapiens, UniProt Q07817); test: Co-immunoprecipitation with anti-GFP antibody, western blot for Bcl-XL; type: binding; conditions: T47D lysate 24 h post transfection, anti-GFP pull-down
T1 construct: endogenous in cells; host or cells: T47D human breast tumor cells
Procedure: Anti-GFP antibody (ab290, Abcam) was coupled to dynabeads using Dynabeads Antibody Coupling Kit (Invitrogen). 24 h post transfection, T47D cells were prepared using the Dynabeads Co-Immunoprecipitation Kit (Invitrogen). Cell pellets were lysed using extraction buffer B (1×IP, […] NaCl, 2 mM MgCl2, 1 mM DTT, 1% protease inhibitor). The lysate was incubated for 30 min at 4° C. with 1.5 mg of dynabeads coupled with anti-GFP antibody, and co-IP was performed per the company's protocol. The final protein complex was denatured and western blot was performed by using Bcl-XL antibody (ab 2568, Abcam).

T47D cells [9] = test: Annexin V assay in T47D cells; type: cell-based, human; conditions: 48 h after transfection
Procedure: 48 h after transfection, T47D cells were pelleted and resuspended in 400 μL of annexin-V binding buffer (Invitrogen) and incubated with 5 μL of annexin-APC (annexin-V conjugated to allophycocyanin, Invitrogen) for 15 min as before. Only transfected cells were analyzed as mentioned in 7-AAD assay. EGFP and APC were excited at 488 nm and 635 nm wavelengths, respectively and detected at their corresponding 507 nm and 660 nm wavelengths. Independent transfections of each construct were tested three times (n=3).

MDA-MB-231 = test: 7-AAD assay in MDA-MB-231 cells; type: cell-based, human; conditions: MDA-MB-231, 24 h after transfection
Procedure: as §1

MCF-7 = test: 7-AAD assay in MCF-7 cells; type: cell-based, human; conditions: MCF-7, 48 h post transfection
Procedure: as §1

Substance | % MOMP induction (loss of TMRE fluorescence) (T47D cells [1]) | caspase-9 activation (T47D cells [2]) | 7-AAD positive cells (late apoptosis) (HeLa cells) | 7-AAD positive cells (late apoptosis) (T47D cells [3]) | 7-AAD positive cells (late apoptosis) (SKOV-3 cells) | nuclear transcriptional activity (relative luminescence) (p53-Luc Cis-Reporter) | 7-AAD positive cells (late apoptosis) (H1373 cells [4]) | transformative ability (colonies, relative fluorescence units) (T47D cells [5]) | apoptotic activity (7-AAD) on cotransfection of BFP-Bcl-XL (rescue) (T47D cells [6]) | TUNEL positive cells (DNA fragmentation) (T47D cells [7]) | apoptosis (7-AAD) in the absence of p53R248Wmut (H1373 cells [8]) | apoptotic activity (7-AAD) when co-transfected with p53R248Wmut (H1373 cells [8]) | co-immunoprecipitation with Bcl-XL (endogenous Bcl-XL) | Annexin V positive cells (apoptotic potential) (T47D cells [9]) | 7-AAD positive cells (late apoptosis) (MDA-MB-231) | 7-AAD positive cells (late apoptosis) (MCF-7)
p53-BakMTS: MTS from Bak fused to the C-terminus of EGFP-p53 | not significantly higher from wt p53 | significant effect; also recorded: not significantly higher from wt p53 | significant from their corresponding negative controls | significant apoptotic effect compared to their corresponding negative controls; also recorded: significantly higher apoptosis compared to cells transfected with MTS negative controls; also recorded: induce apoptosis similarly to wt p53 | significantly higher than their negative control E-BakMTS | no nuclear activity | statistically higher from their negative control E-BakMTS |  |  |  |  |  |  |  |  | 
p53-XL: full length p53 with EGFP on the amino terminus and the MTS from Bcl-XL (XL) on the C-terminus |  | higher caspase-9 activation than E-XL; also recorded: triggers caspase-9 activation significantly more than DBD-XL |  | not statistically significant from each other |  |  |  | significant decrease in transformative ability | significantly reduced | not statistically significant from each other | significantly higher apoptosis compared to their negative controls E-XL and EGFP | capable of rescuing apoptotic activity | co-immunoprecipitated; also recorded: co-immunoprecipitates with endogenous Bcl-XL | significantly higher than the negative control E-XL |  | 
DBD-XL: EGFP, DNA binding domain of p53 and MTS from Bcl-XL |  | higher caspase-9 activation than E-XL | statistically significant from p53-XL | statistically higher than the negative control E-XL; also recorded: not statistically significant from each other |  |  | significantly higher apoptotic activity compared to p53-XL | significant decrease in transformative ability | significantly reduced | not statistically significant from each other | significantly higher apoptosis compared to their negative controls E-XL and EGFP | capable of rescuing apoptotic activity |  | significantly higher apoptotic response than p53-XL; also recorded: significantly higher than the negative control E-XL | significantly higher apoptotic activity compared to p53-XL | significantly higher apoptotic activity compared to p53-XL
